The subject of experiment [1] is Glycopeptide intermediate-resistant (GISA) S. aureus Mu-50 (ATCC 700695). Briefly: MIC determination (EUCAST, Mueller-Hinton broth). Conditions: Staphylococcus aureus, ATCC700695. The experiment is classed as cell-based. The protocol: (§1) Further experiments were conducted using different strains of S. aureus, as clinically relevant Gram-positive bacterial strains: ATCC 25904, ATCC 6538, methilcillin-resistant S. aureus (MRSA) ATCC BAA-1556, Glycopeptide intermediate-resistant (GISA) S. aureus Mu-50 (ATCC 700695) in order to determine the Minimal Inhibitory Concentration (MIC) which is the minimal concentration required to prevent bacterial growth; the Minimal Bactericidal Concentration (MBC) which determines the lowest concentration at which an antimicrobial agent kill a particular microorganism and a Minimum Duration for killing 99.9% bacteria (MDK99.9) which is a tolerance metric according to the EUCAST.
(§2) MIC determination: A single colony selected from the different strains of S. aureus is resuspended and cultured in the appropriate medium overnight (O/N) in aerobic conditions (37° C. with 220 rpm shaking), next day a 1:100 inoculum in Mueller-Hinton broth (MHB) was incubated in aerobic conditions for 3 hr (OD=0.08-0.1) and an inoculum of 1:300 dilution, corresponding to 3×10^5 CFU/ml, was incubated in presence or absence of different concentrations of Triafluocyl in 1% DMSO. After O/N growth the OD of each culture was measured at 600 nm in a spectrophotometer (OD600). The MIC represents the concentration at which there is no visible growth of bacteria, i.e. ΔOD at 600 nm equal to zero (blank is the medium alone). MIC for Triafluocyl against S. aureus ATCC 25904, ATCC 6538, methilcillin-resistant S. aureus (MRSA) ATCC BAA-1556, Glycopeptide intermediate-resistant (GISA), and S. aureus Mu-50 (ATCC 700695) were 20, 20, 15, and 20 μg/ml, respectively.
(§3) The Minimal Inhibitory Concentration (MIC) and the Minimal Bactericidal Concentration (MBC) of Fluometacyl were determined on several gram-positive strains (Table 2) following EUCAST (European Committee on Antimicrobial susceptibility Testing) recommendations.
(§4) For MIC determination a single colony was resuspended and cultured in the appropriate bacteria-specific medium (TSB: Tryptic Soy Broth for S. aureus atcc 25904 and S. epidermidis and BHI: brain-heart infusion medium for all the other strains) overnight (O/N) in aerobic conditions (37° C. with 220 rpm shaking), next day a 1:100 inoculum was incubated in Mueller-Hinton broth (MHB) in aerobic conditions for 3 hr (OD600=0.08-0.1). A further inoculum, 1:300 dilution of the MHB culture, corresponding to 3×10^5 CFU/ml, was grown in presence or absence of different concentrations of Fluometacyl, 1% DMSO in MHB for 20 hr.

The next experiment has as its system S. aureus ATCC 25904. Briefly: MIC determination (EUCAST, Mueller-Hinton broth). The settings on record: Staphylococcus aureus, ATCC25904. The format is cell-based. The protocol: as §1, §2, §3, §4
Experiment [2] has as its system methilcillin-resistant S. aureus (MRSA) ATCC BAA-1556. Briefly: MIC determination (EUCAST, Mueller-Hinton broth). The experiment is classed as cell-based. Conditions: Staphylococcus aureus. The protocol:
as §1, §2, §3, §4

For experiment [3], the system named is Staphylococcus epidermidis (ATCC 35984, also known as RP62A). Put plainly: MBC and MDK99.9 determination. The experiment is classed as cell-based. The protocol: The Minimal Inhibitory Concentration (MIC) and the Minimal Bactericidal Concentration (MBC) of Triafluocyl were determined in Staphylococcus epidermidis (ATCC 35984, also known as RP62A) according to EUCAST (European Committee on Antimicrobial Susceptibility Testing) recommendations.
We have also determined the MBC, i.e. the concentration at which the liquid culture, when spread on TSA plates, will not produce any colony.
The Minimum Duration for killing 99.9% S. epidermidis (MDK99.9) by Triafluocyl, a tolerance metric according to the EUCAST, was 2 hours.
For MBC determination a 1:100 inoculum of an O/N culture (prepared like before) was incubated in aerobic conditions for 2 h in bacteria-specific medium. The culture was then challenged with Fluometacyl at the MIC concentration or higher. Bacterial growth was measured after different time intervals by counting the colony-forming units (CFU) after plating appropriate culture dilutions on bacteria-specific medium agar plates.

Experiment [4] has as its system S. aureus (ATCC 25904) biofilm. Briefly: Biofilm formation on polystyrene (crystal violet). The format is cell-based, Staphylococcus aureus. The settings on record: 20 hours. The protocol: (§5) S. aureus (ATCC 25904) was grown overnight in TSB medium, before being diluted 100 fold in fresh TSB, and incubated aerobically at 37° C. until bacteria culture reached an OD600 of 0.6 (corresponding to approximately 1-3×10^8 CFU/ml). Bacteria cultures were then diluted to 1×10^4 CFU/ml in fresh TSB. 800 μl aliquots of diluted bacteria suspensions were distributed in each well of a 24-well plate. Bacteria were allowed to adhere for 4 hours under static conditions at 37° C. After removing media, wells were rinsed 2 times with PBS to eliminate planktonic bacteria and re-filled with TSB supplemented with 0.5% glucose
Triafluocyl or DMSO as vehicle was then added at desired concentration and plates were incubated at 37° C. for 20 hours. After incubation, wells were washed and stained with 0.5% (w/v) crystal violet for 30 minutes, washed again and the dye was solubilized by adding 20% acetic acid (v/v in water) before reading absorbance at 595 nm.
S. aureus biofilms were formed on polystyrene surface in the presence of increasing concentrations of Triafluocyl or DMSO as vehicle. In FIG. 2, Biofilm mass is presented as percentage of values obtained in the presence of DMSO (*P<0.05; **P<0.01; ***P<0.001, Triafluocyl versus DMSO, n=4).
as §5, with “Staphyloccocus” for “S.”, “or Staphyloccocus epidermidis (ATCC 35984) were” for “was”, “TSB. Aliquots of” for “TSB.”, “μl” for “μl aliquots of”, “removing the” for “removing”, “glucose containing Fluometacyl at desired concentration or DMSO alone (Ctrl). […] The dye was solubilized by adding 20% acetic acid (v/v in water) before reading absorbance at 595 nm. […]” for “glucose”

Each structure is given as a SMILES string. Where two headings read alike, the source gives them in different places.

Regarding `CCCSc1nc(N[C@@H]2C[C@H]2c2ccc(F)c(F)c2)c2nnn([C@@H]3C[C@H](O)[C@@H](O)[C@H]3O)c2n1` [Fluometacyl, (1S,2R,3S,4R)-4-[7-[[(1R,2S)-2-(3,4-Difluorophenyl)cyclopropyl]amino]-5-(propylthio)-3H-1,2,3-triazolo[4,5-d]pyrimidin-3-yl]-1,2,3-cyclopentanetriol], the MIC in experiment [1] (S. aureus MU50 GISA) lay in the range of 30 to 38 µM; in the experiment with S. aureus ATCC 25904, 30 to 38 µM; in experiment [2], 20 to 30 µM. In experiment [3] (Staphylococcus epidermidis, ATCC35984, S. epidermidis, cut-off 99.9% reduction in CFU, read-out: MBC), the minimum bactericidal concentration (MBC) came to 38 µM. The “S. aureus biofilm formation” value in experiment [4] (38 μM, FIG. 10A) is on record as “could not form any biofilm”.

For the compound `CCCSc1nc(N[C@@H]2C[C@H]2c2ccc(F)c(F)c2)c2nnn([C@@H]3C[C@H](OCCO)[C@@H](O)[C@H]3O)c2n1` [Triafluocyl, (1S,2S,3R,5S)-3-[7-[(1R,2S)-2-(3,4-difluorophenyl)cyclopropylamino]-5-(propylthio)-3H-[1,2,3]-triazolo[4,5-d]pyrimidin-3-yl]-5-(2-hydroxyethoxy)-1,2-cyclopentanediol], the minimum inhibitory concentration (MIC) amounted to 20 µg/mL in experiment [1] (S. aureus Mu50 GISA), 20 µg/mL against S. aureus ATCC 25904 and 15 µg/mL in experiment [2]. In addition, the MBC in experiment [3] (S. epidermidis) is 20 µg/mL; in experiment [3] (Staphylococcus epidermidis, ATCC35984, S. epidermidis, read-out: MBC) it was 17 ± 3 µg/mL. Further, the “MDK 99.9 Time (h) needed to kill 99.9% of the started inoculum” value in experiment [3] (S. epidermidis) worked out at 2 h. For the same compound, the “S. aureus biofilm formation” value is “no biofilm could form” in experiment [4] (10 μg/ml, polystyrene surface) and “significantly reduces” in experiment [4] (all concentrations tested, versus DMSO).

The term MIC denotes the lowest concentration found to suppress growth. The term MBC denotes the lowest tested concentration that kills the bacteria rather than only halting them.

(Values after patent US10905691B2, “Use of triazolo(4,5-d)pyrimidine derivatives for prevention and treatment of bacterial infection” (Universite de Liege, priority 2016, dated 2021).)
